# Experimental data as given in patent publication US10323038B2, “Pyrazole compounds and methods of making and using same” (ABIDE THERAPEUTICS, INC., priority 2015, dated 2019).
# Key:
# MAGL = MAGL (Mus musculus (Mouse), UniProt O35678); assay: In vitro competitive activity-based protein profiling, MAGL (mouse); format: biochemical; details: for inhibition at 1 µM: read-out: MAGL % inh. 1 μM (mouse)
# Method in brief: (§1)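 Proteomes at 1.0 mg/mL protein (mouse brain membranes or cell lysates; human prefrontal cortex or cell membranes) preincubated with inhibitor 30 min at 37 °C. Then FP-Rh or HT-01 probe (50 μM stock) added for 30 min at 37 °C. MAGL and FAAH activity measured by SDS-PAGE band fluorescence.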
# FAAH = FAAH (Mus musculus (Mouse), UniProt O08914); assay: In vitro competitive activity-based protein profiling, FAAH (mouse); format: biochemical; details: for inhibition at 1 µM: read-out: FAAH % inh. 1 μM (mouse)
# Method in brief: as §1
# Sequence of FAAH (O08914 whole entry): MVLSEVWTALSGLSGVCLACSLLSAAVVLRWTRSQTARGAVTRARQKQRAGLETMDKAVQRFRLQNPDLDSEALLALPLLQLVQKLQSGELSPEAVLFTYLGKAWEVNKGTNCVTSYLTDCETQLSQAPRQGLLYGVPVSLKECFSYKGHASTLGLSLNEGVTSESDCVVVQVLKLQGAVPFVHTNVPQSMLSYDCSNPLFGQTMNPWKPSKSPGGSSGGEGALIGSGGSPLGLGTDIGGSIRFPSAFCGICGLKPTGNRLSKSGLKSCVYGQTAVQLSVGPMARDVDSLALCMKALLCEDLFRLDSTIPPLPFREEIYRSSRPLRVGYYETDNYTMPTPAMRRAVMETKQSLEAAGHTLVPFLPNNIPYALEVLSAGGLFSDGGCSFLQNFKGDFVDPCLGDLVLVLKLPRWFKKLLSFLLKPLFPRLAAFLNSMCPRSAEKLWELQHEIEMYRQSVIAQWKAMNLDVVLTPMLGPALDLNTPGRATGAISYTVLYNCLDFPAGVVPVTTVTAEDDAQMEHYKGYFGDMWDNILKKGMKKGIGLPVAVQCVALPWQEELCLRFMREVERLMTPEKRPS
# Sequence of MAGL (O35678 whole entry): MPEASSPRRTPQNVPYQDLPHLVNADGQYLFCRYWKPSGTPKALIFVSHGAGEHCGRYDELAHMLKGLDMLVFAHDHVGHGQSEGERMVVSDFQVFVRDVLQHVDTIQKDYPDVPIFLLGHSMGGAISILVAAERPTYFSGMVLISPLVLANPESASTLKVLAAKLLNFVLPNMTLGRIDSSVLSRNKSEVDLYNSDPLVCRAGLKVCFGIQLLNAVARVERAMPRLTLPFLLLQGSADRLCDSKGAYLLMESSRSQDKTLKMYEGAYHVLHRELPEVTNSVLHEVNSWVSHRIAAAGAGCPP
SMILES,inhibition at 1 µM (MAGL) [%],inhibition at 1 µM (FAAH) [%],IC50 (MAGL) [nM],IC50 (FAAH) [nM]
"CC(=O)N(C)c1cnn(C(=O)N2CC3CN(Cc4ccc(-c5cnccn5)cc4Cl)CC3C2)c1 (centres unmarked) [Example 266, N-(1-(5-(2-chloro-4-(pyrazin-2-yl)benzyl)octahydropyrrolo[3,4-c]pyrrole-2-carbonyl)-1H-pyrazol-4-yl)-N-methylacetamide]",≥ 75,≥ 75,,
"CC(=O)N(C)c1cnn(C(=O)N2CC3CN(Cc4ccc(-c5nccs5)cc4Cl)CC3C2)c1 (centres unmarked) [Example 267, N-(1-(5-(2-chloro-4-(thiazol-2-yl)benzyl)octahydropyrrolo[3,4-c]pyrrole-2-carbonyl)-1H-pyrazol-4-yl)-N-methylacetamide]",≥ 75,≥ 75,,
"CC(=O)N(C)c1cnn(C(=O)N2CCC3(CCN(Cc4ccc(-c5ncccn5)cc4Cl)C3)C2)c1 (centres unmarked) [Example 268, N-(1-(7-(2-chloro-4-(pyrimidin-2-yl)benzyl)-2,7-diazaspiro[4.4]nonane-2-carbonyl)-1H-pyrazol-4-yl)-N-methylacetamide]",≥ 75,≥ 75,,
"CC(=O)N(C)c1cnn(C(=O)N2CCC3(CCN(Cc4ccc(-c5nccs5)cc4Cl)C3)C2)c1 (centres unmarked) [Example 269, N-(1-(7-(2-chloro-4-(thiazol-2-yl)benzyl)-2,7-diazaspiro[4.4]nonane-2-carbonyl)-1H-pyrazol-4-yl)-N-methylacetamide]",≥ 75,≥ 75,,
"CC(=O)N(C)c1cnn(C(=O)N2CC3CN(Cc4ccc(OC5CCN(C6CC6)CC5)cc4Cl)CC3C2)c1 (centres unmarked) [Example 270, N-(1-(5-(2-chloro-4-((1-cyclopropylpiperidin-4-yl)oxy)benzyl)octahydropyrrolo[3,4-c]pyrrole-2-carbonyl)-1H-pyrazol-4-yl)-N-methylacetamide]",≥ 75,≥ 75,,
"CC(=O)N(C)c1cnn(C(=O)N2CC3CN(Cc4ccc(OC5CCN(C6CC6)CC5)cc4C(F)(F)F)CC3C2)c1 (centres unmarked) [Example 271, N-(1-(5-(4-((1-cyclopropylpiperidin-4-yl)oxy)-2-(trifluoromethyl)benzyl)octahydropyrrolo [3,4-c]pyrrole-2-carbonyl)-1H-pyrazol-4-yl)-N-methylacetamide]",≥ 75,≥ 75,,
"CC(=O)N(C)c1cnn(C(=O)N2CC3CN(Cc4ccc(-c5ccncn5)cc4Cl)CC3C2)c1 (centres unmarked) [Example 272, N-(1-(5-(2-chloro-4-(pyrimidin-4-yl)benzyl)octahydropyrrolo[3,4-c]pyrrole-2-carbonyl)-1H-pyrazol-4-yl)-N-methylacetamide]",≥ 75,≥ 75,,
"CC(=O)N(C)c1cnn(C(=O)N2CCC3(CCN(Cc4ccc(-c5ccncn5)cc4Cl)C3)C2)c1 (centres unmarked) [Example 273, N-(1-(7-(2-chloro-4-(pyrimidin-4-yl)benzyl)-2,7-diazaspiro[4.4]nonane-2-carbonyl)-1H-pyrazol-4-yl)-N-methylacetamide]",≥ 75,≥ 75,100 to 1000,≤ 100
"CS(=O)(=O)Nc1cnn(C(=O)N2CC3CN(Cc4cc(Cl)ccc4C(F)(F)F)CC3C2)c1 (centres unmarked) [Example 275, N-(1-(5-(5-chloro-2-(trifluoromethyl)benzyl)octahydropyrrolo [3,4-c]pyrrole-2-carbonyl)-1H-pyrazol-4-yl)methanesulfonamide]",≥ 75,≥ 75,≤ 100,100 to 1000
"CS(=O)(=O)Nc1cnn(C(=O)N2CCC3(CCN(Cc4cc(Cl)ccc4C(F)(F)F)C3)CC2)c1 [Example 276, N-(1-(2-(5-chloro-2-(trifluoromethyl)benzyl)-2,8-diazaspiro[4.5]decane-8-carbonyl)-1H-pyrazol-4-yl)methanesulfonamide]",≥ 75,≥ 75,,
"CS(=O)(=O)Nc1cnn(C(=O)N2CCC3(CC2)CN(Cc2cc(Cl)ccc2C(F)(F)F)C3)c1 [Example 277, N-(1-(2-(5-chloro-2-(trifluoromethyl)benzyl)-2,7-diazaspiro[3.5]nonane-7-carbonyl)-1H-pyrazol-4-yl)methanesulfonamide]",≥ 75,≥ 75,≤ 100,≤ 100
"CN(Cc1cc(Cl)ccc1C(F)(F)F)[C@H]1C[C@@H]2CN(C(=O)n3cc(NS(C)(=O)=O)cn3)C[C@@H]2C1 [Example 278, N-(1-[[trans-5-([[5-chloro-2-(trifluoromethyl)phenyl]methyl](methyl)amino)-octahydrocyclopenta[c]pyrrol-2-yl)carbonyl]-1H-pyrazol-4-yl)methanesulfonamide]",≥ 75,≥ 75,,
"CS(=O)(=O)Nc1cnn(C(=O)N2CC3CN(Cc4ccc(N5CCCC5)cc4C(F)(F)F)CC3C2)c1 (centres unmarked) [Example 279, N-(1-(5-(4-(pyrrolidin-1-yl)-2-(trifluoromethyl)benzyl)octahydropyrrolo [3,4-c]pyrrole-2-carbonyl)-1H-pyrazol-4-yl)methanesulfonamide]",≥ 75,≥ 75,≤ 100,100 to 1000
"CS(=O)(=O)Nc1cnn(C(=O)N2CCC3(CCN(Cc4ccc(N5CCCC5)cc4C(F)(F)F)C3)CC2)c1 [Example 280, N-(1-(2-(4-(pyrrolidin-1-yl)-2-(trifluoromethyl)benzyl)-2,8-diazaspiro[4.5]decane-8-carbonyl)-1H-pyrazol-4-yl)methanesulfonamide]",≥ 75,≥ 75,,
"CS(=O)(=O)Nc1cnn(C(=O)N2CCC3(CC2)CN(Cc2ccc(N4CCCC4)cc2C(F)(F)F)C3)c1 [Example 281, N-(1-(2-(4-(pyrrolidin-1-yl)-2-(trifluoromethyl)benzyl)-2,7-diazaspiro[3.5]nonane-7-carbonyl)-1H-pyrazol-4-yl)methanesulfonamide]",≥ 75,≥ 75,,
"CN(Cc1ccc(N2CCCC2)cc1C(F)(F)F)[C@H]1C[C@@H]2CN(C(=O)n3cc(NS(C)(=O)=O)cn3)C[C@@H]2C1 [Example 282, N-(1-(trans-5-(methyl(4-(pyrrolidin-1-yl)-2-(trifluoromethyl)benzyl)amino)octahydrocyclopenta[c]pyrrole-2-carbonyl)-1H-pyrazol-4-yl) methanesulfonamide]",50 to 75,≥ 75,,
"CS(=O)(=O)Nc1cnn(C(=O)N2CCC3(CCN(Cc4cc(Cl)ccc4C(F)(F)F)C3)C2)c1 (centres unmarked) [Example 284, N-[1-[(7-[[5-chloro-2-(trifluoromethyl)phenyl]methyl]-2,7-diazaspiro[4.4]nonan-2-yl)carbonyl]-1H-pyrazol-4-yl]methanesulfonamide]",25 to 50,≥ 75,,
"CS(=O)(=O)Nc1cnn(C(=O)N2CCC3(CCN(Cc4cc(Cl)cc(C(F)(F)F)c4)C3)C2)c1 (centres unmarked) [Example 286, N-(1-(7-(3-chloro-5-(trifluoromethyl)benzyl)-2,7-diazaspiro[4.4]nonane-2-carbonyl)-1H-pyrazol-4-yl)methanesulfonamide]",25 to 50,≥ 75,,
"CS(=O)(=O)Nc1cnn(C(=O)N2CCC3(CCN(Cc4ccc(-c5nccs5)cc4Cl)C3)C2)c1 (centres unmarked) [Example 287, N-(1-(7-(2-chloro-4-(thiazol-2-yl)benzyl)-2,7-diazaspiro[4.4]nonane-2-carbonyl)-1H-pyrazol-4-yl)methanesulfonamide]",50 to 75,≥ 75,,
"CS(=O)(=O)Nc1cnn(C(=O)N2CCN(Cc3ccc(-c4cnccn4)cc3C(F)(F)F)CC2)c1 [Example 289, N-(1-(4-(4-(pyrazin-2-yl)-2-(trifluoromethyl)benzyl)piperazine-1-carbonyl)-1H-pyrazol-4-yl)methanesulfonamide]",25 to 50,≥ 75,,
"CS(=O)(=O)Nc1cnn(C(=O)N2CCN(Cc3ccc(-c4nccs4)cc3C(F)(F)F)CC2)c1 [Example 291, N-(1-(4-(4-(thiazol-2-yl)-2-(trifluoromethyl)benzyl)piperazine-1-carbonyl)-1H-pyrazol-4-yl)methanesulfonamide]",50 to 75,≥ 75,,
"CS(=O)(=O)Nc1cnn(C(=O)N2CCN(Cc3cc(Cl)ccc3C(F)(F)F)CC2)c1 [Example 293, N-(1-(4-(5-chloro-2-(trifluoromethyl)benzyl)piperazine-1-carbonyl)-1H-pyrazol-4-yl)methanesulfonamide]",50 to 75,≥ 75,≤ 100,1000 to 10000
"CS(=O)(=O)Nc1cnn(C(=O)N2CCN(Cc3cc(Cl)cc(C(F)(F)F)c3)CC2)c1 [Example 294, N-(1-(4-(3-chloro-5-(trifluoromethyl)benzyl)piperazine-1-carbonyl)-1H-pyrazol-4-yl)methanesulfonamide]",≥ 75,≥ 75,,
"CS(=O)(=O)Nc1cnn(C(=O)N2CCN(Cc3cc(N4CCCC4)cc(C(F)(F)F)c3)CC2)c1 [Example 295, N-(1-(4-(3-(pyrrolidin-1-yl)-5-(trifluoromethyl)benzyl)piperazine-1-carbonyl)-1H-pyrazol-4-yl)methanesulfonamide]",≥ 75,≥ 75,,
"CS(=O)(=O)Nc1cnn(C(=O)N2CCN(Cc3cccc(Oc4ccc(Cl)cc4)c3)CC2)c1 [Example 296, N-(1-(4-(3-(4-chlorophenoxy)benzyl)piperazine-1-carbonyl)-1H-pyrazol-4-yl)methanesulfonamide]",≥ 75,≥ 75,,
"CN(Cc1ccccc1C(F)(F)F)[C@H]1C[C@@H]2CN(C(=O)n3cc(NS(C)(=O)=O)cn3)C[C@@H]2C1 [Example 299, N-(1-(trans-5-(methyl(2-(trifluoromethyl)benzyl)amino)octahydrocyclopenta[c]pyrrole-2-carbonyl)-1H-pyrazol-4-yl)methanesulfonamide]",≥ 75,≥ 75,,
